Measurements published in patent publication US12139520B2 (priority 2020, dated 2024).
Numbered stars: 1 amine (or outer) side, 2 acyl side, 3 side chain; on linkers, the order of the positions; unused ones are H or OH. Bridge positions count the residues as written; N and C are the ends. Square brackets hold non-standard residues; d marks the D form. Peptide text beside a SMILES is read from it. * marks the point of attachment. C20 diacid = O=C(O)CCCCCCCCCCCCCCCCCCC(=O)*; γGlu = O=C(O)[C@H](CCC(=O)[*:2])N[*:1]; Hyp = O=C(O)[C@@H]1C[C@@H](O)CN1; Trx = NC[C@H]1CC[C@H](C(=O)O)CC1; AEEA = NCCOCCOCC(=O)O; Aib = CC(C)(N)C(=O)O

Columns and labels:
[1] = molecular target: T1, hAMY3 receptor (Homo sapiens, UniProt O60896+P30988); test: cAMP assay for in vitro receptor activation, hAMY3-R; type: cell-based; settings: cAMP assay, hAMY3 receptor; read-out: hAMY3R EC50
T1 sequence (P30988 25-474): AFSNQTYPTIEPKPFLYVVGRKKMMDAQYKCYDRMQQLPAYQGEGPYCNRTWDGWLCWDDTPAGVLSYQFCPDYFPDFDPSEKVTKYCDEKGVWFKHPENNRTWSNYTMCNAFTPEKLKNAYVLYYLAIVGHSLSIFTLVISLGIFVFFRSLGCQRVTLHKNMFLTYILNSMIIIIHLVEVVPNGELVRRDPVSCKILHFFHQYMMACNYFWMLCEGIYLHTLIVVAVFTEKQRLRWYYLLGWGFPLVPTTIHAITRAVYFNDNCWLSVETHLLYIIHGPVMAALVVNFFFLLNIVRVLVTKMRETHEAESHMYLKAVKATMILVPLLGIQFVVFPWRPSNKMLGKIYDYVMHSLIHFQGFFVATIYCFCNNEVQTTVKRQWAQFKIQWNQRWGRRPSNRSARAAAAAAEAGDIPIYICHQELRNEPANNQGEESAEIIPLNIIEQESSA
T1 sequence (O60896 24-148 partner): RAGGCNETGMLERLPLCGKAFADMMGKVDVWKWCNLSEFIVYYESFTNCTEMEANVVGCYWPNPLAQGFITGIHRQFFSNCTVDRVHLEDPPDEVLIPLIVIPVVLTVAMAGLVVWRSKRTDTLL
Method in brief: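 Accumulated cAMP was detected by time-resolved FRET one hour after reagent addition. Beforehand, hAMY3-R-overexpressing monoclonal cells (2000/well, DPBS, 0.05% casein, 0.5 mM IBMX) received graded doses of compound for 30 min at room temperature; human amylin served as positive control.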

[2] = molecular target: hAM1 receptor (Homo sapiens, UniProt O60895+Q16602); test: cAMP assay for in vitro receptor activation, hAM1-R; type: cell-based; settings: cAMP assay, hAM1 receptor; read-out: hAM1R EC50
hAM1 receptor, sequence (Q16602 23-461): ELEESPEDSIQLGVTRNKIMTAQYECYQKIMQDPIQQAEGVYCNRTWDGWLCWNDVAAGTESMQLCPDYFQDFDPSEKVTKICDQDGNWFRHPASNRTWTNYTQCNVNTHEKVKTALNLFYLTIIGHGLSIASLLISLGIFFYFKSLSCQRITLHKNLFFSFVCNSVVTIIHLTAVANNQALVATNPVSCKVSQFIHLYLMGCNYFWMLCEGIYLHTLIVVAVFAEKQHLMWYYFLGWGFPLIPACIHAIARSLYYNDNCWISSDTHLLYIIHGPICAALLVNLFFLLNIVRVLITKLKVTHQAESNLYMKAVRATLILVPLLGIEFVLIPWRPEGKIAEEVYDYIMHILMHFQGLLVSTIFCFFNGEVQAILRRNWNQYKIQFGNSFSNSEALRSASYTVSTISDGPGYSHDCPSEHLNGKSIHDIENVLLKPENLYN
hAM1 receptor, sequence (O60895 43-175 partner): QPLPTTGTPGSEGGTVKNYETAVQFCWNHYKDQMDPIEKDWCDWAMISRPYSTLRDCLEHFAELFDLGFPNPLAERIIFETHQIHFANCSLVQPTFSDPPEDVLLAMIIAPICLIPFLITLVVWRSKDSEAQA
Method in brief: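 Monoclonal stable hAM1-overexpressing cells, thawed from frozen stock; 8000 cells/well in DPBS + 0.05% casein + 0.5 mM IBMX; read-out cAMP.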

| SMILES | EC50 [1] | EC50 [2] |
| --- | --- | --- |
| CC[C@H](C)[C@H](NC(=O)[C@H](CCC(N)=O)NC(=O)[C@H](Cc1c[nH]cn1)NC(=O)[C@H](C)NC(=O)[C@H](CC(C)C)NC(=O)[C@H](CCCNC(=N)N)NC(=O)[C@H](CCC(N)=O)NC(=O)[C@@H](NC(=O)[C@@H](NC(=O)[C@@H]1CSSC[C@H](NC(=O)[C@H](CCCCN)NC(=O)CC[C@H](NC(=O)CCCCCCCCCCCCCCCCCCC(=O)O)C(=O)O)C(=O)N[C@@H](CC(N)=O)C(=O)N[C@@H]([C@@H](C)O)C(=O)N[C@@H](C)C(=O)N[C@@H]([C@@H](C)O)C(=O)N1)[C@@H](C)O)C(C)C)C(=O)N[C@@H](CCC(=O)O)C(=O)N[C@@H](CCC(N)=O)C(=O)N[C@@H](Cc1ccccc1)C(=O)N[C@H](C(=O)N[C@@H](CC(=O)O)C(=O)N[C@@H](CCCCN)C(=O)N[C@@H](CC(=O)O)C(=O)N[C@@H](CCCCN)C(=O)N[C@@H](CC(=O)O)C(=O)N[C@@H](CC(N)=O)C(=O)N[C@H](C(=O)N[C@@H](C)C(=O)N1CCC[C@H]1C(=O)N1CCC[C@H]1C(=O)N[C@H](C(=O)N[C@@H](CC(N)=O)C(=O)N[C@H](C(=O)NCC(=O)N[C@@H](CO)C(=O)N[C@@H](CC(N)=O)C(=O)NCC(=O)N1C[C@H](O)C[C@H]1C(N)=O)C(C)C)[C@@H](C)O)C(C)C)[C@@H](C)O [compound 110] ({C20 diacid-γGlu}-KCNTATCTVQRLAHQIEQFTDKDKDNVAPPTNVGSNG[Hyp]-NH2; disulfide 2-7) | 0.02 nM | > 5 µM |
| CC[C@H](C)[C@H](NC(=O)[C@H](CCC(N)=O)NC(=O)[C@H](Cc1c[nH]cn1)NC(=O)[C@H](C)NC(=O)[C@H](CC(C)C)NC(=O)[C@H](CCCNC(=N)N)NC(=O)[C@H](CC(=O)O)NC(=O)[C@@H](NC(=O)[C@@H](NC(=O)[C@@H]1CSSC[C@H](NC(=O)[C@H](CCCCN)NC(=O)CC[C@H](NC(=O)CCCCCCCCCCCCCCCCCCC(=O)O)C(=O)O)C(=O)N[C@@H](CC(N)=O)C(=O)N[C@@H]([C@@H](C)O)C(=O)N[C@@H](C)C(=O)N[C@@H]([C@@H](C)O)C(=O)N1)[C@@H](C)O)C(C)C)C(=O)N[C@@H](C)C(=O)N[C@@H](CCC(N)=O)C(=O)N[C@@H](Cc1ccccc1)C(=O)N[C@H](C(=O)N[C@@H](CC(=O)O)C(=O)N[C@@H](CCCCN)C(=O)N[C@@H](CC(=O)O)C(=O)N[C@@H](CCCCN)C(=O)N[C@@H](CC(=O)O)C(=O)N[C@@H](CC(N)=O)C(=O)N[C@H](C(=O)N[C@@H](C)C(=O)N1CCC[C@H]1C(=O)N1CCC[C@H]1C(=O)N[C@H](C(=O)N[C@@H](CC(N)=O)C(=O)N[C@H](C(=O)NCC(=O)N[C@@H](CO)C(=O)N[C@@H](CC(N)=O)C(=O)NCC(=O)N1C[C@H](O)C[C@H]1C(N)=O)C(C)C)[C@@H](C)O)C(C)C)[C@@H](C)O [compound 112] ({C20 diacid-γGlu}-KCNTATCTVDRLAHQIAQFTDKDKDNVAPPTNVGSNG[Hyp]-NH2; disulfide 2-7) | 0.021 nM | > 5 µM |
| CC[C@H](C)[C@H](NC(=O)[C@H](CCC(N)=O)NC(=O)[C@H](Cc1c[nH]cn1)NC(=O)[C@H](C)NC(=O)[C@H](CC(C)C)NC(=O)[C@H](CCCNC(=N)N)NC(=O)[C@H](CCC(N)=O)NC(=O)[C@@H](NC(=O)[C@@H](NC(=O)[C@@H]1CSSC[C@H](NC(=O)[C@H](CCCCN)NC(=O)CC[C@H](NC(=O)CCCCCCCCCCCCCCCCCCC(=O)O)C(=O)O)C(=O)N[C@@H](CC(N)=O)C(=O)N[C@@H]([C@@H](C)O)C(=O)NC(C)(C)C(=O)N[C@@H]([C@@H](C)O)C(=O)N1)[C@@H](C)O)C(C)C)C(=O)N[C@@H](Cc1ccc(O)cc1)C(=O)N[C@@H](CCC(N)=O)C(=O)N[C@@H](Cc1ccccc1)C(=O)N[C@H](C(=O)N[C@@H](CC(=O)O)C(=O)N[C@@H](CCCCN)C(=O)N[C@@H](CC(=O)O)C(=O)N[C@@H](CCCCN)C(=O)N[C@@H](CC(=O)O)C(=O)N[C@@H](CC(N)=O)C(=O)N[C@H](C(=O)N[C@@H](C)C(=O)N1CCC[C@H]1C(=O)N1CCC[C@H]1C(=O)N[C@H](C(=O)N[C@@H](CC(N)=O)C(=O)N[C@H](C(=O)NCC(=O)N[C@@H](CO)C(=O)N[C@@H](CC(N)=O)C(=O)NCC(=O)N1C[C@H](O)C[C@H]1C(N)=O)C(C)C)[C@@H](C)O)C(C)C)[C@@H](C)O [compound 119] ({C20 diacid-γGlu}-KCNT[Aib]TCTVQRLAHQIYQFTDKDKDNVAPPTNVGSNG[Hyp]-NH2; disulfide 2-7) | 0.024 nM | > 5 µM |
| CC[C@H](C)[C@H](NC(=O)[C@H](CCC(N)=O)NC(=O)[C@H](Cc1c[nH]cn1)NC(=O)[C@H](C)NC(=O)[C@H](CC(C)C)NC(=O)[C@H](CCCNC(=N)N)NC(=O)[C@H](CCC(N)=O)NC(=O)[C@@H](NC(=O)[C@@H](NC(=O)[C@@H]1CSSC[C@H](NC(=O)[C@H](CCCCN)NC(=O)CC[C@H](NC(=O)CCCCCCCCCCCCCCCCCCC(=O)O)C(=O)O)C(=O)N[C@@H](CC(N)=O)C(=O)N[C@@H]([C@@H](C)O)C(=O)N[C@@H](C)C(=O)N[C@@H]([C@@H](C)O)C(=O)N1)[C@@H](C)O)C(C)C)C(=O)N[C@@H](C)C(=O)N[C@@H](CCC(N)=O)C(=O)N[C@@H](Cc1ccccc1)C(=O)N[C@H](C(=O)N[C@@H](CC(=O)O)C(=O)N[C@@H](CCCCN)C(=O)N[C@@H](CC(=O)O)C(=O)N[C@@H](CCCCN)C(=O)N[C@@H](CC(=O)O)C(=O)N1CCC[C@H]1C(=O)N[C@H](C(=O)N[C@@H](C)C(=O)N1CCC[C@H]1C(=O)N1CCC[C@H]1C(=O)N[C@H](C(=O)N[C@@H](CC(N)=O)C(=O)N[C@H](C(=O)NCC(=O)N[C@@H](CO)C(=O)N[C@@H](CC(N)=O)C(=O)N[C@@H](CO)C(=O)N1C[C@H](O)C[C@H]1C(N)=O)C(C)C)[C@@H](C)O)C(C)C)[C@@H](C)O [compound 120] ({C20 diacid-γGlu}-KCNTATCTVQRLAHQIAQFTDKDKDPVAPPTNVGSNS[Hyp]-NH2; disulfide 2-7) | 0.025 nM | > 5 µM |
| CC[C@H](C)[C@H](NC(=O)[C@H](CCC(N)=O)NC(=O)[C@H](CCC(=O)O)NC(=O)[C@H](C)NC(=O)[C@H](CC(C)C)NC(=O)[C@H](CCCNC(=N)N)NC(=O)[C@H](CCC(N)=O)NC(=O)[C@@H](NC(=O)[C@@H](NC(=O)[C@@H]1CSSC[C@H](NC(=O)[C@H](CCCCN)NC(=O)CC[C@H](NC(=O)CCCCCCCCCCCCCCCCCCC(=O)O)C(=O)O)C(=O)N[C@@H](CC(N)=O)C(=O)N[C@@H]([C@@H](C)O)C(=O)N[C@@H](C)C(=O)N[C@@H]([C@@H](C)O)C(=O)N1)[C@@H](C)O)C(C)C)C(=O)N[C@@H](Cc1ccc(O)cc1)C(=O)N[C@@H](CCC(N)=O)C(=O)N[C@@H](Cc1ccccc1)C(=O)N[C@H](C(=O)N[C@@H](CC(=O)O)C(=O)N[C@@H](CCCCN)C(=O)N[C@@H](C)C(=O)N[C@@H](CCCCN)C(=O)N[C@@H](CC(=O)O)C(=O)N[C@@H](CC(N)=O)C(=O)N[C@H](C(=O)N[C@@H](C)C(=O)N1CCC[C@H]1C(=O)N1CCC[C@H]1C(=O)N[C@H](C(=O)N[C@@H](CC(N)=O)C(=O)N[C@H](C(=O)NCC(=O)N[C@@H](CO)C(=O)N[C@@H](CC(N)=O)C(=O)NCC(=O)N1C[C@H](O)C[C@H]1C(N)=O)C(C)C)[C@@H](C)O)C(C)C)[C@@H](C)O [compound 122] ({C20 diacid-γGlu}-KCNTATCTVQRLAEQIYQFTDKAKDNVAPPTNVGSNG[Hyp]-NH2; disulfide 2-7) | 0.026 nM | > 5 µM |
| CC[C@H](C)[C@H](NC(=O)[C@H](CCC(N)=O)NC(=O)[C@H](CCC(=O)O)NC(=O)[C@H](C)NC(=O)[C@H](CC(C)C)NC(=O)[C@H](CCCNC(=N)N)NC(=O)[C@H](CCC(N)=O)NC(=O)[C@@H](NC(=O)[C@@H](NC(=O)[C@@H]1CSSC[C@H](NC(=O)[C@H](CCCCN)NC(=O)COCCOCCNC(=O)COCCOCCNC(=O)CC[C@H](NC(=O)[C@H]2CC[C@H](CNC(=O)CCCCCCCCCCCCCCCCCCC(=O)O)CC2)C(=O)O)C(=O)N[C@@H](CC(N)=O)C(=O)N[C@@H]([C@@H](C)O)C(=O)N[C@@H](C)C(=O)N[C@@H]([C@@H](C)O)C(=O)N1)[C@@H](C)O)C(C)C)C(=O)N[C@@H](Cc1ccc(O)cc1)C(=O)N[C@@H](CCC(N)=O)C(=O)N[C@@H](Cc1ccccc1)C(=O)N[C@H](C(=O)N[C@@H](CC(=O)O)C(=O)N[C@@H](CCCCN)C(=O)N[C@@H](CC(=O)O)C(=O)N[C@@H](CCCCN)C(=O)N[C@@H](CC(=O)O)C(=O)N[C@@H](CC(N)=O)C(=O)N[C@H](C(=O)N[C@@H](C)C(=O)N1CCC[C@H]1C(=O)N1CCC[C@H]1C(=O)N[C@H](C(=O)N[C@@H](CC(N)=O)C(=O)N[C@H](C(=O)NCC(=O)N[C@@H](CO)C(=O)N[C@@H](CC(N)=O)C(=O)NCC(=O)N1C[C@H](O)C[C@H]1C(N)=O)C(C)C)[C@@H](C)O)C(C)C)[C@@H](C)O [compound 126] ({C20 diacid-Trx-γGlu-AEEA-AEEA}-KCNTATCTVQRLAEQIYQFTDKDKDNVAPPTNVGSNG[Hyp]-NH2; disulfide 2-7) | 0.027 nM | > 5 µM |
